Test results: PubChem BioAssay (NCI)
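Grown in 96-well plates, cells were treated for 48 hours with each compound at five concentrations. Insufficient inhibition: endpoint recorded as highest concentration tested. TGI: total growth inhibition.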

Legend:
Assay in all cases: NCI tumour cell line growth inhibition, 48 h
[1] = system: SNB-19 CNS
[2] = system: TK-10 renal
[3] = system: SF-539 CNS
[4] = system: UACC-62 melanoma
[5] = system: NCI-H226 lung
[6] = system: LXFL 529 NSCLC
[7] = system: HL-60(TB) leukemia
[8] = system: DMS 273 small cell lung
[9] = system: HT29 colon
[10] = system: HCC-2998 colon
[11] = system: SN12C renal
[12] = system: HOP-18 NSCLC
[13] = system: HCT-15 colon
[14] = system: SF-268 CNS
[15] = system: HOP-62 NSCLC
[16] = system: SK-OV-3 ovarian
[17] = system: ACHN renal
[18] = system: MALME-3M melanoma
[19] = system: KM12 colon
[20] = system: OVCAR-5 ovarian
[21] = system: SNB-78 CNS
[22] = system: SK-MEL-2 melanoma
[23] = system: IGROV1 ovarian
[24] = system: SF-295 CNS
[25] = system: SK-MEL-5 melanoma
[26] = system: HOP-92 NSCLC
[27] = system: LOX IMVI melanoma
[28] = system: OVCAR-4 ovarian
[29] = system: U251 CNS
[30] = system: EKVX NSCLC
[31] = system: 786-0 renal
[32] = system: SK-MEL-28 melanoma
[33] = system: OVCAR-3 ovarian
[34] = system: DLD-1 colon
[35] = system: NCI-H460 lung
[36] = system: SW-620 colon
[37] = system: XF 498 CNS
[38] = system: RXF 393 renal
[39] = system: NCI-H23 lung
[40] = system: M14 melanoma
[41] = system: CAKI-1 renal
[42] = system: KM20L2 colon
[43] = system: UO-31 renal
[44] = system: COLO 205 colon
[45] = system: DMS 114 small cell lung
[46] = system: HCT-116 colon
[47] = system: A549 NSCLC
[48] = system: OVCAR-8 ovarian
[49] = system: A498 renal
[50] = system: UACC-257 melanoma
[51] = system: CCRF-CEM leukemia
[52] = system: M19-MEL melanoma
[53] = system: SNB-75 CNS
[54] = system: NCI-H522 lung
[55] = system: K-562 leukemia
[56] = system: RPMI-8226 leukemia
[57] = system: SR leukemia
[58] = system: MOLT-4 leukemia

CCOC(=O)CC1=NC(=Nc2cc(Cl)ccc2Cl)SC1
TGI [1]: > 100 µM
TGI [2]: > 100 µM
TGI [3]: > 100 µM
TGI [4]: > 100 µM
TGI [5]: > 100 µM
TGI [6]: > 100 µM
TGI [7]: > 100 µM
TGI [8]: > 100 µM
TGI [9]: > 100 µM
TGI [10]: > 100 µM
TGI [11]: > 100 µM
TGI [12]: > 100 µM
TGI [13]: > 100 µM
TGI [14]: > 100 µM
TGI [15]: > 100 µM
TGI [16]: > 100 µM
TGI [17]: > 100 µM
TGI [18]: > 100 µM
TGI [19]: > 100 µM
TGI [20]: > 100 µM
TGI [21]: > 100 µM
TGI [22]: > 100 µM
TGI [23]: > 100 µM
TGI [24]: > 100 µM
TGI [25]: > 100 µM
TGI [26]: > 100 µM
TGI [27]: > 100 µM
TGI [28]: > 100 µM
TGI [29]: > 100 µM
TGI [30]: > 100 µM
TGI [31]: > 100 µM
TGI [32]: > 100 µM
TGI [33]: > 100 µM
TGI [34]: > 100 µM
TGI [35]: > 100 µM
TGI [36]: > 100 µM
TGI [37]: > 100 µM
TGI [38]: > 100 µM
TGI [39]: > 100 µM
TGI [40]: > 100 µM
TGI [41]: > 100 µM
TGI [42]: > 100 µM
TGI [43]: > 100 µM
TGI [44]: > 100 µM
TGI [45]: > 100 µM
TGI [46]: > 100 µM
TGI [47]: > 100 µM
TGI [48]: > 100 µM
TGI [49]: > 100 µM
TGI [50]: > 100 µM
TGI [51]: > 100 µM
TGI [52]: > 100 µM
TGI [53]: > 100 µM
TGI [54]: > 100 µM
TGI [55]: > 100 µM

CCCCOP(=O)(OCCCC)/C(C#N)=C/c1ccco1
TGI [1]: > 100 µM
TGI [3]: > 100 µM
TGI [4]: > 100 µM
TGI [6]: > 100 µM
TGI [7]: > 100 µM
TGI [9]: > 100 µM
TGI [14]: > 100 µM
TGI [15]: > 100 µM
TGI [16]: > 100 µM
TGI [17]: > 100 µM
TGI [18]: > 100 µM
TGI [19]: > 100 µM
TGI [20]: > 100 µM
TGI [21]: > 100 µM
TGI [22]: > 100 µM
TGI [23]: > 100 µM
TGI [24]: > 100 µM
TGI [26]: > 100 µM
TGI [28]: > 100 µM
TGI [29]: > 100 µM
TGI [32]: > 100 µM
TGI [33]: > 100 µM
TGI [56]: > 100 µM
TGI [35]: > 100 µM
TGI [38]: > 100 µM
TGI [39]: > 100 µM
TGI [40]: > 100 µM
TGI [42]: > 100 µM
TGI [43]: > 100 µM
TGI [44]: > 100 µM
TGI [45]: > 100 µM
TGI [46]: > 100 µM
TGI [49]: > 100 µM
TGI [50]: > 100 µM
TGI [51]: > 100 µM
TGI [52]: > 100 µM
TGI [53]: > 100 µM

Cc1cc(=O)[nH]c(NN2C(Cl)C(=O)C2c2cccc([N+](=O)[O-])c2)n1 (configuration not stated)
TGI [1]: > 100 µM
TGI [2]: > 100 µM
TGI [4]: 42.5 µM
TGI [5]: 46.9 µM
TGI [6]: 29.9 µM
TGI [7]: 36.8 µM
TGI [8]: 31.2 µM
TGI [9]: 49.9 µM
TGI [10]: 36.8 µM
TGI [11]: 37.6 µM
TGI [12]: 78 µM
TGI [13]: 31.5 µM
TGI [14]: > 100 µM
TGI [15]: > 100 µM
TGI [17]: > 100 µM
TGI [19]: 80.9 µM
TGI [20]: > 100 µM
TGI [57]: 57.8 µM
TGI [21]: > 100 µM
TGI [22]: 36.2 µM
TGI [25]: 33.5 µM
TGI [26]: 34.1 µM
TGI [27]: 26.9 µM
TGI [28]: 57 µM
TGI [29]: 47.4 µM
TGI [30]: > 100 µM
TGI [58]: 44.9 µM
TGI [32]: 47.2 µM
TGI [33]: 32.3 µM
TGI [56]: 40.3 µM
TGI [35]: > 100 µM
TGI [36]: > 100 µM
TGI [38]: 22.5 µM
TGI [39]: 52.4 µM
TGI [40]: 32.2 µM
TGI [42]: > 100 µM
TGI [43]: > 100 µM
TGI [44]: 51.6 µM
TGI [45]: 55.4 µM
TGI [46]: 49.9 µM
TGI [47]: > 100 µM
TGI [48]: > 100 µM
TGI [50]: > 100 µM
TGI [51]: 10.3 µM
TGI [52]: 49.1 µM
TGI [53]: > 100 µM
TGI [55]: 55.3 µM

CCOC(=O)c1nc2ccc(Cl)cc2c2c1CCO2
TGI [1]: > 100 µM
TGI [2]: > 100 µM
TGI [3]: > 100 µM
TGI [4]: > 100 µM
TGI [5]: > 100 µM
TGI [6]: > 100 µM
TGI [7]: > 100 µM
TGI [8]: > 100 µM
TGI [9]: > 100 µM
TGI [10]: > 100 µM
TGI [11]: > 100 µM
TGI [12]: > 100 µM
TGI [13]: > 100 µM
TGI [14]: > 100 µM
TGI [15]: > 100 µM
TGI [16]: > 100 µM
TGI [17]: > 100 µM
TGI [18]: > 100 µM
TGI [19]: > 100 µM
TGI [20]: > 100 µM
TGI [21]: > 100 µM
TGI [23]: > 100 µM
TGI [24]: > 100 µM
TGI [25]: > 100 µM
TGI [27]: > 100 µM
TGI [28]: > 100 µM
TGI [29]: > 100 µM
TGI [30]: > 100 µM
TGI [58]: > 100 µM
TGI [31]: > 100 µM
TGI [32]: > 100 µM
TGI [33]: > 100 µM
TGI [34]: > 100 µM
TGI [35]: > 100 µM
TGI [36]: > 100 µM
TGI [37]: > 100 µM
TGI [38]: > 100 µM
TGI [39]: > 100 µM
TGI [40]: > 100 µM
TGI [41]: > 100 µM
TGI [42]: > 100 µM
TGI [44]: > 100 µM
TGI [45]: > 100 µM
TGI [46]: > 100 µM
TGI [47]: > 100 µM
TGI [48]: > 100 µM
TGI [49]: > 100 µM
TGI [50]: > 100 µM
TGI [51]: > 100 µM
TGI [52]: > 100 µM
TGI [53]: 88.6 µM
TGI [54]: > 100 µM
TGI [55]: > 100 µM
